Like-named read-outs stand apart in the source and are kept apart here.
Key:
C57BL6/J DIO mice [1] = test system: C57BL6/J DIO mice
C57BL6/J DIO mice [2] = experiment: Body weight of diet-induced obese mice under daily compound administration; format: in vivo, mouse
Protocol: FIG. 9. Loss of weight in Vandetanib administered mice. C57BL6/J DIO mice were administered 40/mg/kg/day by oral gavage. The mice were weighed daily and the values were expressed as a percentage of the starting weight (day 1). […] Error bars represent standard error of the mean.
FIG. 13. Loss of weight in dasatininb administered mice. C57BL6/J DIO mice were administered 5/mg/kg/day for 27 days. The mice were weighed daily and the values were expressed as a percentage of the starting weight (day 1). […] Error bars represent standard error of the mean.
General preferred layout: The mice were divided into cages of 2-4 mice per cage and allowed to acclimatise to the new housing conditions for at least 2 weeks. The mice were weighed every week to monitor their weight and ensure that the mice are either gaining weight or stabilized prior to initiation of the experiment. Mice were randomly assigned to weight-matched groups for compound administration. Compound dosage and routes of administration were determined based on published literature and pharmacokinetic studies. […]
The dose of Vandetanib chosen for this study was 40 mg/kg/d. This has been determined to be an effective dose for the inhibition of the target VEGFR in various mouse cancer models. […] The mice were weighed on a daily basis during the experiment and monitored for overt signs of toxicity or stress. […]

hedgehog pathway = format: cell-based
[3] = administered orally; cited from earlier work
[4] = human, in vivo, po; cited from earlier work
[5] = cited from earlier work
[6] = test system: human Adenoid Cycstic Carcinoma; settings: 50 mg/kg/d oral gavage for 4 weeks; cited from earlier work
tumour growth = settings: up to 100 mg/kg in mice for 35 days; cited from earlier work
renal cell carcinoma = settings: 50 mg/kg for 21 days; cited from earlier work

## Cc1nc(Nc2ncc(C(=O)Nc3c(C)cccc3Cl)s2)cc(N2CCN(CCO)CC2)n1 [Dasatinib]
C57BL6/J DIO mice [1]; mouse, in vivo, ip, 5 mg/kg/day
  tolerability / adverse side effects: well tolerated during the course of the study and no adverse side effects were observed
C57BL6/J DIO mice [2]; 5 mg/kg/day intraperitoneally, by day 28
  average loss of starting weight: 20%

## CNC1CCC(N(Cc2cccc(-c3ccncc3)c2)C(=O)c2sc3ccccc3c2Cl)CC1 (stereo not drawn) [SAG]
Hedgehog pathway
  hedgehog pathway activation (target genes Gli1 and Ptch1): activation

## CNC(=O)c1cc(Oc2ccc(NC(=O)Nc3ccc(Cl)c(C(F)(F)F)c3)cc2)ccn1 [Sorafenib]
[3]
  half life: 25 to 48 h
[4]
  maximum tolerated dose in humans: 400 mg

## C=CCNC1=C2C[C@@H](C)C[C@H](OC)[C@H](O)[C@@H](C)/C=C(\C)[C@H](OC(N)=O)[C@@H](OC)/C=C\C=C(/C)C(=O)NC(=CC1=O)C2=O [Tanespimycin, 17-allylamino-demethoxygeldamycin]
[5]
  water solubility: water insoluble

## COc1cc2c(Nc3ccc(Br)cc3F)ncnc2cc1OCC1CCN(C)CC1 [Vandetanib]
[6]
  tolerability: well tolerated by the mice and no adverse side effects or loss in body weight was observed
Tumour growth
  effect on clinical condition: no obvious effect on clinical condition
Renal cell carcinoma
  tolerability: well tolerated with no drug related changes in weight or behaviour observed
[4]
  maximum tolerated dose in humans: 300 mg
C57BL6/J DIO mice [1]; DIO mice, 40 mg/kg/d oral gavage, course of the study
  tolerability / adverse side effects: well tolerated during the course of the study and no adverse side effects were observed
C57BL6/J DIO mice [2]; 40 mg/kg/d oral gavage, stabilized over the course of the experiment
  reduction of body weight: ~10%
